This assay deals with HLA-A*02:01 (Homo sapiens, UniProt P04439, D140Y/D185E/D98H/E176V/E277Q/G131W/G231S/I119V/I121R/I166T/I218V/L300P/L318F/N151K/N90K/P208A/P217A/Q86G/Q94H/R138H/R169H/T345S). Nature of the assay: HLA-peptide competition binding assay, A*02:01.
Where [1] appears, read: unmodified (WT) insulin peptide, competition binding assay, a dash indicates IC50 >40,000 nM, read-out: A*02:01 binding (IC50 nM) WT.
Where [2] appears, read: post-translationally modified insulin peptide, competition binding assay, a dash indicates IC50 >40,000 nM, read-out: A*02:01 binding (IC50 nM) Modified.
The mark [3] stands for this setting: read-out: IC50 nM, target assay A*02:01.
[4] abbreviates: read-out: A*02:01 binding (IC50 nM) WT.
[5] abbreviates: read-out: A*02:01 binding (IC50 nM) Modified.

Read-outs that look alike come from different tables or passages of the source. *1 amine or outer side, *2 acyl side, *3 side chain or, on linkers, in order; H or OH if unused. Where a SMILES comes first, the peptide text is derived from it. Where no end group is shown, it is not given here. [ ]: non-standard residue; d: D form. γGlu = O=C(O)[C@H](CCC(=O)[*:2])N[*:1]; βAsp = O=C(O)[C@H](CC(=O)[*:2])N[*:1]; Cya = N[C@@H](CS(=O)(=O)O)C(=O)O; Cit = NC(=O)NCCC[C@H](N)C(=O)O

`C[C@@H](O)[C@H](NC(=O)[C@H](CCCCN)NC(=O)[C@@H]1CCCN1C(=O)[C@@H](NC(=O)[C@H](Cc1ccc(O)cc1)NC(=O)[C@H](Cc1ccccc1)NC(=O)[C@H](Cc1ccccc1)NC(=O)CNC(=O)[C@@H](N)CCCNC(=N)N)[C@@H](C)O)C(=O)N[C@@H](CCCNC(=N)N)C(=O)O`: the IC50 under setting [1] was over 40000 nM. Regarding ERGYFYTPK, under setting [2], the IC50 is over 40000 nM. NLAQDLATV [reference compound]: under setting [3], the IC50 stood at 67 nM.

Regarding LASEKVYAI [reference compound], under setting [3], the IC50 was determined as 6930 nM.

Take TIADFWQMV [reference compound]: the IC50 under setting [3] came to 4690 nM.

Regarding `C[C@H](NC(=O)[C@H](CCC(=O)O)NC(=O)[C@H](CCCNC(N)=O)NC(=O)[C@H](CCCNC(N)=O)NC(=O)[C@@H](NC(=O)[C@H](CCCCN)NC(=O)[C@@H]1CCCN1)[C@@H](C)O)C(=O)N[C@@H](CCC(=O)O)C(=O)N[C@@H](CC(=O)O)C(=O)O` [PKTUUEAED] (H-PKT[Cit][Cit]EAED-OH; N-terminus and C-terminus assumed), under setting [2], the IC50 was over 40000 nM. As for FMTSSWWRAPL [reference compound], the IC50 under setting [3] was 84 nM. Turning to YLVCGERGFF, the IC50 under setting [4] turned out to be 1400 nM.

Consider `CC(C)C[C@H](NC(=O)[C@H](CC(=O)O)NC(=O)[C@H](CCC(=O)O)NC(=O)[C@H](C)NC(=O)[C@H](CCC(=O)O)NC(=O)[C@@H](N)CCCNC(N)=O)C(=O)N[C@@H](CCC(N)=O)C(=O)N[C@H](C(=O)NCC(=O)N[C@@H](CCC(N)=O)C(=O)O)C(C)C` (H-[Cit]EAEDLQVGQ-OH; N-terminus and C-terminus assumed), for which the IC50 under setting [2] is over 40000 nM. Regarding `CC(C)C[C@H](NC(=O)[C@H](CC(=O)O)NC(=O)[C@H](CCC(=O)O)NC(=O)[C@H](C)NC(=O)[C@H](CCC(=O)O)NC(=O)[C@H](CCCNC(N)=O)NC(=O)[C@H](CCCNC(N)=O)NC(=O)[C@@H](NC(=O)[C@@H](N)CCCCN)[C@@H](C)O)C(=O)N[C@@H](CCC(N)=O)C(=O)O` (H-KT[Cit][Cit]EAEDLQ-OH), the IC50 under setting [5] is 22300 nM. For VIVMLTPLV [reference compound], under setting [3], the IC50 amounted to 2120 nM. In the case of `CC[C@H](C)[C@H](NC(=O)CNC(=O)[C@H](CCCNC(N)=O)NC(=O)[C@H](CCCCN)NC(=O)[C@H](CCC(N)=O)NC(=O)[C@H](CC(C)C)NC(=O)[C@H](CO)NC(=O)CNC(=O)[C@H](CCC(=O)O)NC(=O)[C@@H](N)CC(C)C)C(=O)O` (H-LEGSLQK[Cit]GI-OH; N-terminus and C-terminus assumed), the IC50 under setting [2] was over 40000 nM. As for `CC[C@H](C)[C@H](NC(=O)CNC(=O)[C@H](CCCNC(N)=O)NC(=O)[C@H](CCCCN)NC(=O)[C@H](CCC(N)=O)NC(=O)[C@H](CC(C)C)NC(=O)[C@H](CO)NC(=O)CN)C(=O)N[C@H](C(=O)N[C@@H](CCC(=O)O)C(=O)O)C(C)C` [GSLQKUGIVE] (H-GSLQK[Cit]GIVE-OH), the IC50 under setting [5] came to 34500 nM. The molecule `CSCC[C@H](NC(=O)[C@@H](N)Cc1c[nH]c2ccccc12)C(=O)N[C@@H](CCCNC(N)=O)C(=O)N[C@@H](CC(C)C)C(=O)N[C@@H](CC(C)C)C(=O)N1CCC[C@H]1C(=O)N[C@@H](CC(C)C)C(=O)N[C@@H](CC(C)C)C(=O)N[C@@H](C)C(=O)N[C@@H](CC(C)C)C(=O)O` [WMULLPLLAL] (H-WM[Cit]LLPLLAL-OH) displayed an IC50 of 310 nM.

Consider FIQVYEVERA [reference compound], for which the IC50 under setting [3] is 7020 nM. As for FYTPKTRREA, the IC50 under setting [1] was over 40000 nM. With RLQREWHTL [reference compound], under setting [3], the IC50 was determined as 1230 nM.

`CC(C)C[C@H](NC(=O)[C@@H](N)Cc1ccc(O)cc1)C(=O)N[C@H](C(=O)N[C@@H](CS(=O)(=O)O)C(=O)NCC(=O)N[C@@H](CCC(=O)O)C(=O)N[C@@H](CCCNC(=N)N)C(=O)NCC(=O)N[C@@H](Cc1ccc(O)cc1)C(=O)N[C@@H](Cc1ccc(O)cc1)C(=O)O)C(C)C` [YLVBGERGYY] (H-YLV[Cya]GERGYY-OH): the IC50 under setting [5] is 2420 nM. Turning to SLYHVYEVNL [reference compound], under setting [3], the IC50 was 209 nM. As to ERGYYYTPK, under “read-out: A*02:01 binding (IC50 nM) Modified, post-translationally modified insulin peptide, competition binding assay, a dash indicates IC50 >40,000 nM”, the IC50 is over 40000 nM. With `CC(C)C[C@H](NC(=O)[C@H](Cc1c[nH]cn1)NC(=O)CC[C@H](NC(=O)C[C@H](N)C(=O)O)C(=O)O)C(=O)N[C@@H](CS)C(=O)NCC(=O)N[C@@H](CO)C(=O)N[C@@H](Cc1c[nH]cn1)C(=O)N[C@@H](CC(C)C)C(=O)N[C@H](C(=O)O)C(C)C` [OZHLCGSHLV] ({βAsp-γGlu}-HLCGSHLV-OH; N-terminus and C-terminus assumed), the IC50 under setting [2] was over 40000 nM. RLGPVARTRV [reference compound]: under setting [3], the IC50 came out at 581 nM. As to RGYFYTPKT, under setting [2], the IC50 is over 40000 nM. Still for that read-out and setting: the value for `CC(C)C[C@H](NC(=O)[C@H](C)N)C(=O)N[C@@H](CCC(=O)O)C(=O)NCC(=O)N[C@@H](CO)C(=O)N[C@@H](CC(C)C)C(=O)N[C@@H](CCC(N)=O)C(=O)N[C@@H](CCCCN)C(=O)N[C@@H](CCCNC(N)=O)C(=O)O` (H-ALEGSLQK[Cit]-OH; N-terminus and C-terminus assumed) was over 40000 nM.

With MRLLPLLALL, under setting [4], the IC50 turned out to be 10 nM. For the molecule LEGSLQKRGI, the IC50 under setting [1] was over 40000 nM. The same measure, in the same setting: the value for CGERGFFYTP was over 40000 nM.

Take EGSLQKRGI: the IC50 under setting [1] is over 40000 nM. As for `CC(C)C[C@H](NC(=O)[C@H](C)N)C(=O)N[C@@H](Cc1ccc(O)cc1)C(=O)N[C@@H](CC(C)C)C(=O)N[C@H](C(=O)N[C@@H](CS)C(=O)NCC(=O)N[C@@H](CCC(=O)O)C(=O)N[C@@H](CCCNC(N)=O)C(=O)O)C(C)C`, the IC50 amounted to 1240 nM. As for `CC(C)C[C@H](NC(=O)[C@H](Cc1c[nH]cn1)NC(=O)[C@H](CCC(N)=O)NC(=O)[C@@H](N)CC(N)=O)C(=O)N[C@@H](CS(=O)(=O)O)C(=O)NCC(=O)N[C@@H](CO)C(=O)N[C@@H](Cc1c[nH]cn1)C(=O)N[C@@H](CC(C)C)C(=O)N[C@H](C(=O)O)C(C)C` [NQHLBGSHLV] (H-NQHL[Cya]GSHLV-OH; N-terminus and C-terminus assumed), the IC50 under setting [2] was over 40000 nM. Consider HLSYHWLLPL [reference compound], for which the IC50 under setting [3] came out at 3820 nM. As for LLDVAPLSL [reference compound], the IC50 under setting [3] amounted to 51 nM. Consider `CSCC[C@H](NC(=O)[C@@H](N)Cc1c[nH]c2ccccc12)C(=O)N[C@@H](CCCNC(N)=O)C(=O)N[C@@H](CC(C)C)C(=O)N[C@@H](CC(C)C)C(=O)N1CCC[C@H]1C(=O)N[C@@H](CC(C)C)C(=O)N[C@@H](CC(C)C)C(=O)N[C@@H](C)C(=O)O` (H-WM[Cit]LLPLLA-OH), for which the IC50 came to 1010 nM. Regarding VEALYLVCGE, the IC50 under setting [4] is 8870 nM. On to EHLCGSHLVE, for which the IC50 under setting [2] is over 40000 nM. In the case of MVWESGCTV [reference compound], the IC50 under setting [3] came out at 126 nM. The same measure, in the same setting: the value for RLLPLWAALPL [reference compound] was 5.4 nM. On to `CC[C@H](C)[C@H](NC(=O)CNC(=O)[C@H](CCCNC(N)=O)NC(=O)[C@H](CCCCN)NC(=O)[C@H](CCC(N)=O)NC(=O)[C@H](CC(C)C)NC(=O)[C@H](CO)NC(=O)CNC(=O)[C@@H](N)CCC(=O)O)C(=O)O` (H-EGSLQK[Cit]GI-OH; N-terminus and C-terminus assumed), for which the IC50 under setting [2] was over 40000 nM. For RREAEDLQV, the IC50 under setting [1] was over 40000 nM. Take `C[C@@H](O)[C@H](NC(=O)[C@H](Cc1ccc(O)cc1)NC(=O)[C@H](Cc1ccccc1)NC(=O)[C@H](Cc1ccccc1)NC(=O)CNC(=O)[C@H](CCCNC(N)=O)NC(=O)[C@@H](N)CCC(=O)O)C(=O)N1CCC[C@H]1C(=O)N[C@@H](CCCCN)C(=O)O` (H-E[Cit]GFFYTPK-OH): the IC50 under setting [5] turned out to be 38100 nM. As for YTPKTRREAE, the IC50 under setting [1] was over 40000 nM. Consider LNIDLLWSV [reference compound], for which the IC50 under setting [3] stood at 684 nM.

Take YLVCGERGF: the IC50 (unmodified (wild type) insulin-derived peptide, radiolabeled ligand competition, purified MHC, two-day incubation, three or more independent experiments, read-out: A*02:01 binding, WT) was 6740 nM. Take “WLLPLWAAL [WLLPLWAAL, reference compound]”: the IC50 under setting [3] was 4.2 nM. Regarding GLPAGAAAQA [reference compound], the IC50 under setting [3] is 530 nM. Consider `CC(C)C[C@H](NC(=O)[C@H](Cc1c[nH]cn1)NC(=O)[C@H](CO)NC(=O)CNC(=O)[C@H](CS(=O)(=O)O)NC(=O)[C@H](CC(C)C)NC(=O)[C@H](Cc1c[nH]cn1)NC(=O)[C@H](CCC(N)=O)NC(=O)[C@@H](N)CC(N)=O)C(=O)O` [NQHLBGSHL] (H-NQHL[Cya]GSHL-OH; N-terminus and C-terminus assumed), for which the IC50 under setting [2] is over 40000 nM. Same read-out and setting: the value for `CC(C)C[C@H](NC(=O)[C@H](C)NC(=O)[C@H](CCC(=O)O)NC(=O)[C@@H](NC(=O)[C@H](CC(C)C)NC(=O)[C@H](Cc1c[nH]cn1)NC(=O)[C@H](CO)NC(=O)CNC(=O)[C@@H](N)CS(=O)(=O)O)C(C)C)C(=O)O` [BGSHLVEAL] (H-[Cya]GSHLVEAL-OH; N-terminus and C-terminus assumed) was over 40000 nM. Take LMFWSPSHSCA [reference compound]: the IC50 under setting [3] came out at 143 nM. Turning to `C[C@@H](O)[C@H](NC(=O)[C@H](CCCCN)NC(=O)[C@@H]1CCCN1C(=O)[C@@H](NC(=O)[C@H](Cc1ccc(O)cc1)NC(=O)[C@H](Cc1ccccc1)NC(=O)[C@H](Cc1ccccc1)NC(=O)CNC(=O)[C@@H](N)CCCNC(N)=O)[C@@H](C)O)C(=O)O`, the IC50 was found to be 27300 nM. The molecule `C[C@@H](O)[C@H](NC(=O)[C@H](CCCCN)NC(=O)[C@@H]1CCCN1C(=O)[C@@H](NC(=O)[C@H](Cc1ccc(O)cc1)NC(=O)[C@H](Cc1ccccc1)NC(=O)[C@H](Cc1ccccc1)NC(=O)CN)[C@@H](C)O)C(=O)N[C@@H](CCCNC(N)=O)C(=O)O` showed an IC50 of 38400 nM. As for GSLQKRGIVE [GSLQKRGIVE], under setting [1], the IC50 was over 40000 nM. SLFEGVDFYT [reference compound]: the IC50 under setting [3] amounted to 51 nM.

These data come from publication PMC5863483, “Low HLA binding of diabetes-associated CD8+ T-cell epitopes is increased by post translational modifications” (BMC Immunology, 2018).
